Where two headings read alike, the source gives them in different places.
Experiments:
Format in all cases: biochemical
[1] = biological target: T1, purified human myeloperoxidase (Homo sapiens, UniProt P05164); assay: Taurine chloramine/TMB assay of HOCl production by purified myeloperoxidase with test compounds; conditions: for [HOCl]: HOCl generated by myeloperoxidase in presence of 10 μM test compounds (DMSO 0.1%), stopped after five minutes with catalase, None = 56.2 ± 2.1; for % Inhibition: inhibition of HOCl production, 10 μM test compounds (DMSO 0.1%), negative = enhancement
T1 sequence (P05164 49-745): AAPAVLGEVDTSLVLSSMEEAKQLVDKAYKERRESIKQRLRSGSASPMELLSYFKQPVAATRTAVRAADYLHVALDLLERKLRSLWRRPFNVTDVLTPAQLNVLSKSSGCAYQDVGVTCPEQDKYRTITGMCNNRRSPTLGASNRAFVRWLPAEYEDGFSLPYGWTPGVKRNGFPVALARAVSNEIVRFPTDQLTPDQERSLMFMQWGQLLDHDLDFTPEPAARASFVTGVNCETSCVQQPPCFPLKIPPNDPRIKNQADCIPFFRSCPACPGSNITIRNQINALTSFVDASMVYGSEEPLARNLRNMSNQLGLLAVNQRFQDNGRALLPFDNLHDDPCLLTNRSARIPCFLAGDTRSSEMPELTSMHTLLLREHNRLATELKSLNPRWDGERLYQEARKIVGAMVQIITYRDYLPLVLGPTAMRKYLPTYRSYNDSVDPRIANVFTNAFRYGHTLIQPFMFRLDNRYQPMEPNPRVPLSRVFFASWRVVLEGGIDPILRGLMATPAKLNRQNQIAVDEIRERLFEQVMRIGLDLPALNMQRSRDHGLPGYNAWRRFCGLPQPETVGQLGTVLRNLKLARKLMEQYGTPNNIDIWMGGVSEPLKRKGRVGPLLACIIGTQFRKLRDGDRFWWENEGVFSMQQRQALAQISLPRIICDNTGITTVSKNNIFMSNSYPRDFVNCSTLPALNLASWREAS
Method: The taurine chloramine assay of the present invention was used to detect HOCl generated by purified human myeloperoxidase. Hydrogen peroxide (100 μM) was added to 20 mM phosphate buffer pH 6.5 containing 20 nM myeloperoxidase, 100 mM NaCl and 10 mM taurine. The mixture was incubated for 15 minutes at room temperature and the reaction stopped by adding catalase (10 μg/ml). Five minutes later developing reagent was added to detect the generated taurine chloramine. The amount of taurine chloramine produced was compared to that formed by adding 100 μM HOCl to the PBST. […] The concentration of stock hydrogen peroxide was determined using E240 43.6 M^−1 cm^−1 and that of stock hypochlorite using E292 350 M^−1 cm^−1.
Hypochlorous acid was generated by myeloperoxidase in the absence or presence of 10 μM test compounds under the conditions described above for the time course experiment. Reactions were initiated by adding hydrogen peroxide and stopped five minutes later by adding catalase.

MPO [2] = biological target: T2, MPO (Homo sapiens, UniProt P05164); assay: In vitro MPO assay measuring HOCl production (Example 1); set-up: purchased Planta
T2 sequence (P05164 49-745): T1 sequence (P05164 49-745)
Method: Here we describe an in vitro MPO assay that was developed to assess inhibition of enzyme activity. Essentially the MPO assay was designed to measure the production of hypochlorous acid (HOCl), which is the key physiological product generated by the enzyme in vivo. An outline of the assay reactions is given:
Compounds were preincubated with the MPO enzyme in buffer for about 15 minutes prior to start of the reaction with H2O2. The whole reaction was carried out at room temperature for 10 minutes in a 96-well plate. […] All test concentrations were done in duplicate with at least two separate determinations (n=2; unless otherwise stated). The inhibitory concentration for a compound is presented as pIC50, which is −log IC50.

MPO [3] = biological target: T2, MPO; assay: MPO taurine chloramine/TMB assay with catalase stop (Example 5)
Method: Assay buffer: 20 mM sodium/potassium phosphate buffer pH 6.5 containing 10 mM taurine and 100 mM NaCl.
Developing reagent: 2 mM TMB, 200 μM KI, 200 mM acetate buffer pH 5.4 with 20% DMF.
To 10 μl of diluted compounds in assay buffer, 40 μl of MPO (final concentration 2.5 nM) was added for 10 minutes at room temperature. Then 50 μl of H2O2 (final concentration 100 μM), or assay buffer alone as a control, were added for 10 minutes at room temperature. […] Plates were mixed and subsequently read at 650 nm.

[4] = biological target: T1, purified human myeloperoxidase; assay: Taurine chloramine/TMB assay of HOCl production by purified myeloperoxidase with test compounds; conditions: catalase at 20 μg/ml

| Compound | [HOCl] [1] [µM] | inhibition at 10 µM ([1]; read-out: % Inhibition) [%] | other results |
| --- | --- | --- | --- |
| COc1ccc(OC)cc1 [1,4-Dimethoxybenzene] | 15.2 ± 1.0 | 73 | – |
| COc1ccc2[nH]cc(CCO)c2c1 [5-Methoxytryptophol] | – | – | IC50 (MPO [2]): 501 nM |
| C[S+](C)[O-] [DMSO, dimethylsulphoxide] | 52.8 ± 1.2 | – | % Inhibition [1]: 6% |
| Nc1ccc(S(=O)(=O)c2ccc(N)cc2)cc1 [Dapsone] | 1.8 ± 0.1 | 97 | IC50 (MPO [3]; in the absence of tyrosine): 0.257 ± 0.073 µM; IC50 (MPO [3]; in the presence of 8 μM tyrosine): 7.12 ± 0.61 µM |
| Nc1ccc(S(=O)(=O)Nc2nccs2)cc1 [N-1(2-thiazolyl)-sulfanilamide] | – | – | IC50 (MPO [2]): 1000 nM |
| N[C@@H](Cc1ccc(O)cc1)C(=O)O [Tyrosine] | 107.0 ± 0.5 | -90 | – |
| Nc1ccc(Br)cc1 [p-Bromoaniline] | 2.5 ± 0.1 | – | inhibition at 10 µM [1]: 95.6% |
| Catalase | 8.8 ± 1.3 | – | inhibition of the formation of HOCl [4]: 90%; % Inhibition [1]: 84% |
